Measurements reported in US20180200233A1, “COMPOSITIONS FOR PREVENTING CANCERS ASSOCIATED WITH HUMAN PAPILLOMA VIRUSES” (Loma Linda University, priority 2015, published 2018).

How the values were obtained:
GST-E6/His-caspase 8 = biological target: T1, GST-E6/His-caspase 8 (Human papillomavirus type 16, UniProt P03126); assay: AlphaScreen bead-based assay, GST-E6/His-caspase 8 binding; design: species or system HPV 16
T1 construct: made in house
Description: (§1) FIGS. 2A-C are graphs providing data regarding inhibition of protein-protein interactions by 3-(1H-indol-1yl)propan-1-amine (1), three benzimidazole derivatives (2-4), and spinacine (5). Compounds, at the indicated concentrations (1.4 μM to 3.2 mM) were tested using a bead-based screening assay for their ability to inhibit three different protein/protein interactions: (FIG. 2A) GST-E6/His-caspase 8; (FIG. 2B) GST-E6/HisE6AP; and (FIG. 2C) GST-caspase 8/His-caspase 8. Binding in the presence of 1.4 μM of the test compound was set at 100%. Experiments were performed in triplicate, and error bars indicate the standard deviation.
HPV E6 binds to caspase 8 (Garnett, T. O., M. Filippova, and P. J. Duerksen-Hughes, Accelerated degradation of FADD and procaspase 8 in cells expressing human papilloma virus 16 E6 impairs TRAIL-mediated apoptosis. Cell death and differentiation, 2006. 13(11): p. 1915-26), and myricetin can block the E6/caspase 8 interaction in vitro (Yuan, C. H., et al., Small molecule inhibitors of the HPV16-E6 interaction with caspase 8. Bioorganic & medicinal chemistry letters, 2012. 22(5): p. 2125-9). A bead-based assay based on AlphaScreen™ technology (Perkin-Elmer) is used to identify inhibitors of the E6/caspase 8 interaction (Yuan, C. H., et al., Small molecule inhibitors of the HPV16-E6 interaction with caspase 8. Bioorganic & medicinal chemistry letters, 2012. 22(5): p. 2125-9). The ActiProbe 2K (2,000 compounds) library was screened using the same approach. […] Analysis of the structures and physical/chemical characteristics of those molecules led to the selection of five additional compounds: 3-(1H-indol-1-yl)propan-1-amine methanesulfonate (1), benzimidazole (2), 1H-benzimidazole-1-methanol (3), 2-(methoxymethyl)-1H-benzimidazole (4), and spinacine (5) for further study (FIG. 1).
To determine the dose-responsiveness of these five compounds, variable concentrations of those small molecules were first tested for their ability to inhibit E6/caspase binding. […] These molecules, which had been selected for their ability to interfere with E6/caspase 8 binding, were then tested to determine if they could also affect other interactions of E6, such as its binding to E6-associated protein (E6AP). The E6/E6AP interaction is required for the E6-mediated acceleration of p53 degradation (Huibregtse, J. M., M. Scheffner, and P. M. Howley, A cellular protein mediates association of p53 with the E6 oncoprotein of human papillomavirus types 16 or 18. The EMBO journal, 1991. 10(13): p. 4129-35).
Alpha-Screen™ technology was used to assess the interactions between GST-E6, GST-caspase 8, His-E6AP, and His-caspase 8. Binding assays were performed in white 384-well plates (Perkin-Elmer) in a total volume of 25 μl as previously described (Tungteakkhun, S. S., et al., The interaction between human papillomavirus type 16 and FADD is mediated by a novel E6 binding domain. Journal of virology, 2008. 82(19): p. 9600-14). Briefly, 5 μl (50 ng) of GST-E6 and 5 μl (87.5 ng) of His-caspase 8 were included in each reaction mixture with 5 μl blocking buffer (0.5 mg BSA, 0.5% Tween 20 in PBS) in the absence or presence of 10 μM of each test chemical. […] The mixture was incubated in the dark at room temperature overnight, and the emitted signal was detected using the Envision Multilabel plate reader (Perkin-Elmer). In the presence of test chemicals, the binding affinity was calculated as a percentage of the binding in the presence of carrier only (DMSO).

[1] = biological target: T2, GST-caspase 8/His-caspase 8 (Homo sapiens, UniProt Q14790); assay: AlphaScreen counter-screen, GST-caspase 8/His-caspase 8 binding; conditions: for EC50 for GST-caspase 8/His-caspase 8 interaction: compounds tested 1.4 μM to 3.2 mM
T2 construct: pTriEx-Caspase-8 DED plasmids; fused on or other part: GST tag on one copy, His tag on the other (AlphaScreen bead handles)
T2 sequence (Q14790 whole entry, the tested form may be a part): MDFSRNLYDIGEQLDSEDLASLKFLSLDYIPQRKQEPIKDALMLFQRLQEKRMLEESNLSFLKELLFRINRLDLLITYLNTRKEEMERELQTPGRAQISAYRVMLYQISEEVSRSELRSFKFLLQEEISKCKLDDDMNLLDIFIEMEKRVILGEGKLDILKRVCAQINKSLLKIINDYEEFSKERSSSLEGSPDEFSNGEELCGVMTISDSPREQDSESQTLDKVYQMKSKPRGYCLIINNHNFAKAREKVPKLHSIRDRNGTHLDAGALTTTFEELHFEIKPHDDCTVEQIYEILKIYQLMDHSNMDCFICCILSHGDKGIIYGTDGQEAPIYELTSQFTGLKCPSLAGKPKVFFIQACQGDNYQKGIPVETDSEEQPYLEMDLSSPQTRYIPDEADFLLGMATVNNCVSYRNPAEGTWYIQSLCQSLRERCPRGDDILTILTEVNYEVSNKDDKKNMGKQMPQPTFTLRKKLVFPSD
Description: as §1
To ask whether this inhibition was specific, a counter-screening assay was employed the ability of candidates to inhibit the binding of GST-caspase 8 to His-caspase 8 was assessed; those that did were to be eliminated. In this counter-screening assay, the materials in each well were the same as in the primary screen, with the exception that GST-caspase 8 replaced GST-E6.
Alpha-Screen™ technology was used to assess the interactions between GST-E6, GST-caspase 8, His-E6AP, and His-caspase 8. Binding assays were performed in white 384-well plates (Perkin-Elmer) in a total volume of 25 μl as previously described (Tungteakkhun, S. S., et al., The interaction between human papillomavirus type 16 and FADD is mediated by a novel E6 binding domain. Journal of virology, 2008. 82(19): p. 9600-14). Briefly, 5 μl (50 ng) of GST-E6 and 5 μl (87.5 ng) of His-caspase 8 were included in each reaction mixture with 5 μl blocking buffer (0.5 mg BSA, 0.5% Tween 20 in PBS) in the absence or presence of 10 μM of each test chemical. Members of the library were present at […] in DMSO. After a one-hour incubation of the mixture at room temperature, 5 μl donor beads and 5 μl acceptor beads (Perkin-Elmer) were added to each well according to the manufacturer's protocol. The mixture was incubated in the dark at room temperature overnight, and the emitted signal was detected using the Envision Multilabel plate reader (Perkin-Elmer). In the presence of test chemicals, the binding affinity was calculated as a percentage of the binding in the presence of carrier only (DMSO).

T1 sequence (P03126 whole entry): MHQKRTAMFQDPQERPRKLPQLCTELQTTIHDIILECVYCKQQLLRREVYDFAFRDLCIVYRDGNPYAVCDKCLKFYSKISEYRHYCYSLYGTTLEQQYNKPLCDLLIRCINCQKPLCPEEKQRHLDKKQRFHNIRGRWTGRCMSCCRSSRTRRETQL

In the case of O=C(O)C1Cc2[nH]cnc2CN1 (centres unmarked) [Compound 5, 4,5,6,7-Tetrahydro-1H-imidazo(4,5-c)pyridine-6-carboxylic acid], the “inhibition of E6/caspase 8 binding (in words)” value (GST-E6/His-caspase 8; FIG. 2A, primary screen at 10 μM) is reported as “dose-dependent inhibition”, the “inhibition of caspase 8/caspase 8 interaction (in words)” value ([1]; FIG. 2C) is reported as “did not significantly inhibit” and the “EC50 for GST-caspase 8/His-caspase 8 interaction” value [1] is reported as “No”.
For OCn1cnc2ccccc21 [Compound 3, 1H-benzimidazole-1-methanol], the “EC50 for GST-E6/His-caspase 8 interaction” value (GST-E6/His-caspase 8; bead-based assay, compounds tested 1.4 μM to 3.2 mM) was “No Inhibition” and the “EC50 for GST-caspase 8/His-caspase 8 interaction” value [1] was “No Inhibition”.
